Test results: the NIST ThermoML archive (doi:10.1016/j.fluid.2010.07.009)
Numbers after ± are expanded uncertainties.

Legend:
[1] = xn = mol fraction of the nth substance listed; details: Fluid (supercritical or subcritical phases), coriolis meter
[2] = Fluid (supercritical or subcritical phases), coriolis meter

COC [dimethyl ether] + O=C=O
mass density ([1]; 288.5 K, 4100 kPa, x1 = 1): 684 ± 1 kg/m3
mass density ([1]; 288.6 K, 5100 kPa, x1 = 1): 686 ± 14 kg/m3
mass density ([1]; 288.8 K, 6100 kPa, x1 = 1): 688 ± 1 kg/m3
mass density ([1]; 289 K, 7200 kPa, x1 = 1): 690 ± 2 kg/m3
mass density ([1]; 289.1 K, 8200 kPa, x1 = 1): 691 ± 1 kg/m3
mass density ([1]; 289.1 K, 9200 kPa, x1 = 1): 693 ± 1 kg/m3
mass density ([1]; 289.3 K, 10000 kPa, x1 = 1): 694 ± 1 kg/m3
mass density ([1]; 289.3 K, 15000 kPa, x1 = 1): 703 ± 1 kg/m3
mass density ([1]; 289.3 K, 20000 kPa, x1 = 1): 711 ± 1 kg/m3
mass density ([1]; 289.4 K, 25000 kPa, x1 = 1): 718 ± 2 kg/m3
mass density ([1]; 289.5 K, 30000 kPa, x1 = 1): 725 ± 2 kg/m3
mass density ([1]; 290.2 K, 4100 kPa, x1 = 0.251): 806 ± 1 kg/m3
mass density ([1]; 290.7 K, 30100 kPa, x1 = 0.251): 908 ± 2 kg/m3
mass density ([1]; 291.8 K, 25200 kPa, x1 = 0.251): 892 ± 1 kg/m3
mass density ([1]; 291.9 K, 10100 kPa, x1 = 0.251): 834 ± 2 kg/m3
mass density ([1]; 291.9 K, 15200 kPa, x1 = 0.251): 857 ± 1 kg/m3
mass density ([1]; 291.9 K, 20200 kPa, x1 = 0.251): 875 ± 1 kg/m3
mass density ([1]; 292 K, 8100 kPa, x1 = 0.251): 824 ± 2 kg/m3
mass density ([1]; 292 K, 9200 kPa, x1 = 0.251): 829 ± 2 kg/m3
mass density ([1]; 292.1 K, 6100 kPa, x1 = 0.251): 811 ± 2 kg/m3
mass density ([1]; 292.1 K, 7100 kPa, x1 = 0.251): 817 ± 2 kg/m3
mass density ([1]; 292.2 K, 5100 kPa, x1 = 0.251): 805 ± 6 kg/m3
mass density ([1]; 292.5 K, 4000 kPa, x1 = 0.458): 769 ± 1 kg/m3
mass density ([1]; 292.5 K, 5200 kPa, x1 = 0.458): 773 ± 1 kg/m3
mass density ([1]; 292.6 K, 6100 kPa, x1 = 0.458): 776 ± 1 kg/m3
mass density ([1]; 292.7 K, 7100 kPa, x1 = 0.458): 780 ± 1 kg/m3
mass density ([1]; 292.8 K, 8200 kPa, x1 = 0.458): 783 ± 1 kg/m3
mass density ([1]; 293 K, 9200 kPa, x1 = 0.458): 786 ± 15 kg/m3
mass density ([1]; 293.1 K, 10200 kPa, x1 = 0.458): 789 ± 1 kg/m3
mass density ([1]; 293.2 K, 15200 kPa, x1 = 0.458): 804 ± 1 kg/m3
mass density ([1]; 293.4 K, 20200 kPa, x1 = 0.458): 817 ± 1 kg/m3
mass density ([1]; 293.5 K, 25300 kPa, x1 = 0.458): 830 ± 1 kg/m3
mass density ([1]; 293.7 K, 29300 kPa, x1 = 0.458): 839 ± 1 kg/m3
mass density ([1]; 293.7 K, 30000 kPa, x1 = 0.458): 840 ± 1 kg/m3

O=C=O [carbon dioxide]
mass density ([2]; 291.3 K, 6100 kPa): 817 ± 9 kg/m3
mass density ([2]; 291.5 K, 7100 kPa): 834 ± 14 kg/m3
mass density ([2]; 291.7 K, 8100 kPa): 849 ± 17 kg/m3
mass density ([2]; 291.9 K, 9200 kPa): 861 ± 9 kg/m3
mass density ([2]; 292 K, 10200 kPa): 872 ± 10 kg/m3
mass density ([2]; 292.1 K, 15200 kPa): 916 ± 12 kg/m3
mass density ([2]; 292.1 K, 20200 kPa): 948 ± 15 kg/m3
mass density ([2]; 292.1 K, 25300 kPa): 975 ± 10 kg/m3
mass density ([2]; 292.1 K, 30100 kPa): 997 ± 10 kg/m3

COC [dimethyl ether]
mass density ([2]; 288.5 K, 4100 kPa): 684 ± 7 kg/m3
mass density ([2]; 288.6 K, 5100 kPa): 686 ± 16 kg/m3
mass density ([2]; 288.8 K, 6100 kPa): 688 ± 7 kg/m3
mass density ([2]; 289 K, 7200 kPa): 690 ± 7 kg/m3
mass density ([2]; 289.1 K, 8200 kPa): 691 ± 7 kg/m3
mass density ([2]; 289.1 K, 9200 kPa): 693 ± 7 kg/m3
mass density ([2]; 289.3 K, 10000 kPa): 694 ± 7 kg/m3
mass density ([2]; 289.3 K, 15000 kPa): 703 ± 7 kg/m3
mass density ([2]; 289.3 K, 20000 kPa): 711 ± 7 kg/m3
mass density ([2]; 289.4 K, 25000 kPa): 718 ± 7 kg/m3
mass density ([2]; 289.5 K, 30000 kPa): 725 ± 8 kg/m3

O=C=O [carbon dioxide] + COC
mass density ([1]; 291.3 K, 6100 kPa, x2 = 0): 817 ± 4 kg/m3
mass density ([1]; 291.5 K, 7100 kPa, x2 = 0): 834 ± 11 kg/m3
mass density ([1]; 291.7 K, 8100 kPa, x2 = 0): 849 ± 14 kg/m3
mass density ([1]; 291.9 K, 9200 kPa, x2 = 0): 861 ± 3 kg/m3
mass density ([1]; 292 K, 10200 kPa, x2 = 0): 872 ± 5 kg/m3
mass density ([1]; 292.1 K, 15200 kPa, x2 = 0): 916 ± 8 kg/m3
mass density ([1]; 292.1 K, 20200 kPa, x2 = 0): 948 ± 12 kg/m3
mass density ([1]; 292.1 K, 25300 kPa, x2 = 0): 975 ± 2 kg/m3
mass density ([1]; 292.1 K, 30100 kPa, x2 = 0): 997 ± 2 kg/m3
